Data from US20100292185A1, “BETA-LACTAMASE INHIBITORS” (priority 2009, published 2010).
Read-outs that look alike come from different tables or passages of the source.

What was measured:
SHV-5 β-lactamase = target: T1, SHV-5 β-lactamase (Klebsiella pneumoniae, UniProt P0A3M1); assay: β-lactamase enzyme inhibition assay (nitrocefin substrate), SHV-5; format: biochemical
T1 construct: expressed as native untagged proteins; made in house; host or cells: E. coli BL21(DE3)
Procedure, shortened: (§1)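 Enzyme was first mixed with serially diluted compound (100 to 0.005 μM) in PBS pH 7.0 and held 10 min at 37 °C. Next, nitrocefin was dispensed to 100 μM final, and hydrolysis was followed at 486 nm for 10 min. Percent inhibition was then calculated from maximum rates and fitted to an IC50.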

CTX-M15 β-lactamase = target: T2, CTX-M15 β-lactamase (Escherichia coli, UniProt Q9EXV5); assay: β-lactamase enzyme inhibition assay (nitrocefin substrate), CTXM-15; format: biochemical
T2 construct: expressed as native untagged proteins; made in house; host or cells: E. coli BL21(DE3)
T2 sequence (Q9EXV5 entry or part of it): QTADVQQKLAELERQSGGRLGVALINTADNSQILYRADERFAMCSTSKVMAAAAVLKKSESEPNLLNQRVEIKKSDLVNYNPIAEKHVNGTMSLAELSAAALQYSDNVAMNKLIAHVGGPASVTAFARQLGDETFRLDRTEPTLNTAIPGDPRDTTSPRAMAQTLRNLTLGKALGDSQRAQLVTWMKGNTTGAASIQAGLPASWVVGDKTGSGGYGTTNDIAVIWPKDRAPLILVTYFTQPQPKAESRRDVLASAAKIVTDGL
Procedure, shortened: as §1

p99 AmpC β-lactamase = target: T3, p99 AmpC β-lactamase (Enterobacter cloacae, UniProt P05364); assay: β-lactamase enzyme inhibition assay (nitrocefin substrate), P99 AmpC; format: biochemical
T3 construct: expressed as native untagged proteins; made in house; host or cells: E. coli BL21(DE3)
T3 sequence (P05364 21-381): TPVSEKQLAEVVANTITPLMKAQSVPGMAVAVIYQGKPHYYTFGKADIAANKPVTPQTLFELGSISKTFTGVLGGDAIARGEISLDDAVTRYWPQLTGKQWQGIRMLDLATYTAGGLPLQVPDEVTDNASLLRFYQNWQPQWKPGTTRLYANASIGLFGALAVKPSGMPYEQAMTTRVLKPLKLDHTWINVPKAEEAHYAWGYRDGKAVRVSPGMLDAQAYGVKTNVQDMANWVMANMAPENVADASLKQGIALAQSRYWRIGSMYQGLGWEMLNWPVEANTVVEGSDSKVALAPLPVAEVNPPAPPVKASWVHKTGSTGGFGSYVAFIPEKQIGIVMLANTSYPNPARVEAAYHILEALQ
Procedure, shortened: as §1

KPC-2 β-lactamase = target: T4, KPC-2 β-lactamase (Klebsiella pneumoniae, UniProt Q9F663); assay: β-lactamase enzyme inhibition assay (nitrocefin substrate), KPC-2; format: biochemical
T4 construct: expressed as native untagged proteins; made in house; host or cells: E. coli BL21(DE3)
T4 sequence (Q9F663 25-293 limits assumed): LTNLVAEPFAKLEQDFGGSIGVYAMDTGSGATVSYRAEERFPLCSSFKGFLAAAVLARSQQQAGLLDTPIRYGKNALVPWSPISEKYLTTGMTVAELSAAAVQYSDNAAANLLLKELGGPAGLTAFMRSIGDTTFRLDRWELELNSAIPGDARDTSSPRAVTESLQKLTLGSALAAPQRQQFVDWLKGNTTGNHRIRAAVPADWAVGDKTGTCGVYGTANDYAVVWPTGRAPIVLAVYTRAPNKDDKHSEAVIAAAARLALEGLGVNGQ
Procedure, shortened: as §1

[1] = target: T5, VIM-2 metallo β-lactamase (Pseudomonas aeruginosa, UniProt Q9K2N0); assay: β-lactamase enzyme inhibition assay (nitrocefin substrate), VIM-2; format: biochemical
T5 construct: made in house
Protocol: Isolation of β-lactamases. For SHV-5, p99 AmpC, KPC-2 and CTX-M15 β-lactamases, E. coli BL21(DE3) bacterial cells carrying expression plasmids (expressed as native untagged proteins) for the individual β-lactamases were grown in 1 L of Superbroth (Teknova Inc. Hollister, Calif.) supplemented with 100 μg/ml kanamycin and 1×5052 (0.5% glycerol, 0.05% glucose and 0.2% α-lactose) at 35° C. for 18-20 hours. Cells were harvested by centrifugation (4,000×g, 4° C., 20 min), and resuspended in 50 ml of 10 mM HEPES pH 7.5 (1/20 of the initial volume). The cells were lysed by sonication (5 pulses of 45 seconds) at 45 W on ice. The lysates were clarified by centrifugation at 10,000×g for 40 minutes at 4° C. Samples were diluted 5-fold in 50 mM sodium acetate pH 5.0, stored overnight at 4° C., after which they were centrifuged at 10,000×g for 30 minutes to clarify, and filtered through 0.45 μm filters. The samples were loaded onto a 5 ml Capto S sepharose cation exchange column (GE Healthcare) pre-equilibrated with 50 mM sodium acetate pH 5.0. The column was washed with 5 column volumes of 50 mM sodium acetate pH 5.0 to wash out unbound protein and a linear gradient of NaCl (0 to 500 mM) was used to elute the protein (over 16 CV) from the column. Fractions were assayed for β-lactamase activity using Centa (Calbiochem, Gibbstown, N.J.) as a reporter β-lactamase substrate for activity in the isolated fractions. Active fractions were pooled, concentrated and further purified by gel filtration chromatography on a Superdex 75 prep grade gel filtration column (GE Healthcare, Piscataway, N.J.) pre-equilibrated in 50 mM Hepes pH 7.5, 150 mM NaCl. Active fractions were pooled concentrated, quantitated by BCA protein determination (Thermo Scientific, Rockford, Ill.), and frozen at −80° C. in 20% glycerol until use.
For VIM-2 metallo (β-lactamase, the procedure was identical with the following exceptions: 1) the protein was not pH adjusted to pH 5 with 50 mM sodium acetate, 2) the chromatography step was changed to a 5 ml Q sepharose anion exchange column pre-equilibrated with 50 mM Hepes pH 7.5, and 3) elution of the protein was achieved by a linear gradient of NaCl (0-600 mM). Finally, the VIM-2 purification required a second run (3rd step) on the Q sepharose anion exchange column to achieve acceptable purity (>90%).
β-lactamase Inhibition. To determine the level of inhibition of β-lactamase enzymes, compounds were diluted in PBS at pH 7.0 to yield concentrations between 100 and 0.005 μM in microtiter plates. An equal volume of diluted enzyme stock was added, and the plates were incubated at 37° C. for 10 min. Nitrocefin solution was then dispensed as substrate into each well at a final concentration of 100 μM, and the plates were immediately read with the kinetic program at 486 nm for 10 min on the SPECTRAMAX® Plus^384 (high-throughput microplate spectrophotometer; Molecular Devices Corp., Sunnyvale, Calif.). Maximum rates of metabolism were then compared to those in control wells (without inhibitors), and percentages of enzyme inhibition were calculated for each concentration of inhibitor. The concentration of inhibitor needed to reduce the initial rate of hydrolysis of substrate by 50% (IC50) was calculated as the residual activity of β-lactamase at 486 nm using the SoftMax Pro 5.0 software (Molecular Devices Corp.).
Using the methodology described above, examples of the current invention were evaluated for their ability to inhibit β-lactamase enzymes. The results of these assays are summarized in Table 2 for representative enzymes across different subtypes (note SHV-5 and CTXM-15 exemplify different subclasses of Ambler Class A Extended Spectrum Beta Lactamases, KPC-2 exemplifies Class A carbapenemases, P99 represents chromosomal Class C AmpC, VIM-2 exemplifies subclass B1 of metallo-β-lactamases, and OXA-23 represents chromosome-encoded Class D oxacillin-hydrolyzing β-lactamases), NT=not tested.

OXA-23 β-lactamase = target: T6, OXA-23 β-lactamase (Acinetobacter baumannii, UniProt Q9L4P2); assay: β-lactamase enzyme inhibition assay (nitrocefin substrate), OXA-23 crude extract; format: biochemical
T6 construct: crude β-lactamase extracts were prepared from 20 ml overnight cultures; endogenous in cells; host or cells: Acinetobacter baumannii cells containing OXA-23 (crude freeze-thaw extract)
T6 sequence (Q9L4P2 18-273): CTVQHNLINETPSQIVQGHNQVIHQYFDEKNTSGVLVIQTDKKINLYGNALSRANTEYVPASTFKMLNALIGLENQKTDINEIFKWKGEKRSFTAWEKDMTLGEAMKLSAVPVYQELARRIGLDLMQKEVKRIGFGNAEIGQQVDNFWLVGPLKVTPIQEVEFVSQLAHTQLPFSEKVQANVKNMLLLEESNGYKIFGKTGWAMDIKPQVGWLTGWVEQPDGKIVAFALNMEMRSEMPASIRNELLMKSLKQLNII
Procedure, shortened: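 Crude enzyme came from freeze-thaw extracts of mid-log OXA-23-carrying A. baumannii grown in MH-II broth at 37° C. Inhibitors (100–0.005 μM in PBS pH 7.0) were preincubated with the enzyme for 10 min at 37° C, then 100 μM nitrocefin (final) was added and read kinetically at 486 nm for 10 min. IC50 was taken from initial hydrolysis rates relative to uninhibited controls.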

[2] = system: E. coli expressing the Class A ESBL SHV-5; assay: In vitro antibacterial assay of β-lactamase inhibition (broth microdilution MIC), E. coli SHV-5; format: cell-based; conditions: in presence of Ceftazidime 8 μg/ml (Examples 1-56)
Procedure, shortened: (§2)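 MIC read by eye after 16-20 h at 37° C. Compounds were titrated 2-fold from 8 μg/mL down to 0.015 μg/mL (final) in CAMHB with a β-lactam antibiotic, and wells were inoculated per CLSI with strains grown 3-5 h under 50 μg/mL ampicillin.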

[3] = system: K. pneumoniae expressing the Class A Extended Spectrum Beta-Lactamase (ESBL) CTX-M-15; assay: In vitro antibacterial assay of β-lactamase inhibition (broth microdilution MIC), K. pneumoniae CTX-M-15; format: cell-based; conditions: in presence of Ceftazidime 8 μg/ml (Examples 1-56)
Procedure, shortened: as §2

[4] = system: E. cloacae expressing the Class C P99+; assay: In vitro antibacterial assay of β-lactamase inhibition (broth microdilution MIC), E. cloacae P99+; format: cell-based; conditions: in presence of Ceftazidime 8 μg/ml (Examples 1-56)
Procedure, shortened: as §2

[5] = system: K. pneumoniae expressing the Class A carbapenemase KPC-2; assay: microbe, parasite or virus in culture; format: cell-based; conditions: in presence of Ceftazidime 8 μg/ml (Examples 1-56)
Procedure, shortened: as §2

[6] = system: P. aeruginosa expressing the Class B metallo β-lactamase VIM-2; assay: In vitro antibacterial assay of β-lactamase inhibition (broth microdilution MIC), P. aeruginosa VIM-2; format: cell-based; conditions: in presence of Ceftazidime 16 μg/mL (Examples 1-56)
Procedure, shortened: as §2

[7] = nitrocefin 100 μM, 37° C., PBS pH 7.0, read-out: P99 AmpC IC50
[8] = nitrocefin 100 μM, 37° C., PBS pH 7.0, read-out: VIM-2 IC50
[9] = nitrocefin 100 μM, 37° C., PBS pH 7.0, read-out: OXA-23 IC50

T1 sequence (P0A3M1 22-286): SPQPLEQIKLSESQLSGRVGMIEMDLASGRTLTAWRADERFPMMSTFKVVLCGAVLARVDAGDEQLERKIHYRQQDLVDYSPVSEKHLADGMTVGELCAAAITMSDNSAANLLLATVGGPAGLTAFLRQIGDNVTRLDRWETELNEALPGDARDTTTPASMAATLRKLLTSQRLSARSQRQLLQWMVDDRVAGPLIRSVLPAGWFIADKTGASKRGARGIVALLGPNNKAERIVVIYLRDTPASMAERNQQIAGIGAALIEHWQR

SMILES: Cl.O=C(N[C@@H](Cc1cccc(C(=O)O)c1O)B(O)O)c1ccc(N2CCNCC2)nc1 [Example 9, (2R)-3-{2-[(2-(1-piperazinyl)-pyridine-5-carbonyl)-amino]-2-borono-ethyl}-2-hydroxy-benzoic acid hydrochloride]
- IC50 (SHV-5 β-lactamase): > 1000 nM
- IC50 (CTX-M15 β-lactamase): 83 nM
- IC50 (p99 AmpC β-lactamase; [7]): 2 nM
- IC50 (KPC-2 β-lactamase): 6 nM
- IC50 [1, 8]: 242 nM
- IC50 (OXA-23 β-lactamase; [9]): > 1000 nM
- MIC of example compound, E. coli SHV-5 [2]: 4 µg/mL
- MIC of example compound, K. pneumoniae CTX-M-15 [3]: 1 µg/mL
- MIC of example compound, E. cloacae P99+ [4]: 0.25 µg/mL
- MIC of example compound, K. pneumoniae KPC-2 [5]: <0.01 µg/mL
- MIC of example compound, P. aeruginosa VIM-2 [6]: >8 µg/mL

SMILES: CC(=O)Nc1ccc(C(=O)N[C@@H](Cc2cccc(C(=O)O)c2O)B(O)O)cn1 [Example 10, (2R)-3-{2-[(2-(acetylamino)-pyridine-5-carbonyl)-amino]-2-borono-ethyl}-2-hydroxy-benzoic acid]
- IC50 (SHV-5 β-lactamase): 319 nM
- IC50 (CTX-M15 β-lactamase): 3 nM
- IC50 (p99 AmpC β-lactamase; [7]): 3 nM
- IC50 (KPC-2 β-lactamase): 4 nM
- IC50 [1, 8]: 680 nM
- IC50 (OXA-23 β-lactamase; [9]): 580 nM
- MIC of example compound, E. coli SHV-5 [2]: 1 µg/mL
- MIC of example compound, K. pneumoniae CTX-M-15 [3]: 0.25 µg/mL
- MIC of example compound, E. cloacae P99+ [4]: 0.5 µg/mL
- MIC of example compound, K. pneumoniae KPC-2 [5]: 0.01 µg/mL
- MIC of example compound, P. aeruginosa VIM-2 [6]: >8 µg/mL

SMILES: CNCc1ccc(C(=O)N[C@@H](Cc2cccc(C(=O)O)c2O)B(O)O)cc1.Cl [Example 11, (1R)-[4-(methylamino)methyl]-benzoylamino-(3-carboxy-2-hydroxy)benzyl-methyl boronic acid hydrochloride]
- IC50 (SHV-5 β-lactamase): > 1000 nM
- IC50 (CTX-M15 β-lactamase): 4 nM
- IC50 (p99 AmpC β-lactamase; [7]): 1 nM
- IC50 (KPC-2 β-lactamase): 4 nM
- IC50 [1, 8]: 57 nM
- IC50 (OXA-23 β-lactamase; [9]): > 1000 nM
- MIC of example compound, E. coli SHV-5 [2]: 8 µg/mL
- MIC of example compound, K. pneumoniae CTX-M-15 [3]: 1 µg/mL
- MIC of example compound, E. cloacae P99+ [4]: 0.25 µg/mL
- MIC of example compound, K. pneumoniae KPC-2 [5]: <0.01 µg/mL
- MIC of example compound, P. aeruginosa VIM-2 [6]: 8 µg/mL

SMILES: Cl.O=C(N[C@@H](Cc1cccc(C(=O)O)c1O)B(O)O)c1ccc(CN2CCCC(C(=O)O)C2)cc1 (stereo partly drawn) [Example 12, (1R)-[4-(piperidine-3-carboxylic acid)-methyl]-benzoylamino-(3-carboxy-2-hydroxy)benzyl-methyl boronic acid hydrochloride]
- IC50 (SHV-5 β-lactamase): 870 nM
- IC50 (CTX-M15 β-lactamase): 3 nM
- IC50 (p99 AmpC β-lactamase; [7]): 900 nM
- IC50 (KPC-2 β-lactamase): 11 nM
- IC50 [1, 8]: 930 nM
- IC50 (OXA-23 β-lactamase; [9]): > 1000 nM
- MIC of example compound, E. coli SHV-5 [2]: 4 µg/mL
- MIC of example compound, K. pneumoniae CTX-M-15 [3]: 1 µg/mL
- MIC of example compound, E. cloacae P99+ [4]: 2 µg/mL
- MIC of example compound, K. pneumoniae KPC-2 [5]: 0.03 µg/mL
- MIC of example compound, P. aeruginosa VIM-2 [6]: >8 µg/mL

SMILES: CC[N+](CC)(CC)Cc1ccc(C(=O)N[C@@H](Cc2cccc(C(=O)O)c2O)B(O)O)cc1 [Example 13, (1R)-(4-(triethylammonium)methyl)-benzoylamino-(3-carboxy-2-hydroxy)benzyl-methyl boronic acid bromide]
- IC50 (SHV-5 β-lactamase): > 1000 nM
- IC50 (CTX-M15 β-lactamase): 14 nM
- IC50 (p99 AmpC β-lactamase): 4 nM
- IC50 (KPC-2 β-lactamase): 3 nM
- IC50 [1]: 340 nM
- IC50 (OXA-23 β-lactamase): > 1000 nM
- MIC of example compound, E. coli SHV-5 [2]: >8 µg/mL
- MIC of example compound, K. pneumoniae CTX-M-15 [3]: >8 µg/mL
- MIC of example compound, E. cloacae P99+ [4]: >8 µg/mL
- MIC of example compound, K. pneumoniae KPC-2 [5]: 0.25 µg/mL
- MIC of example compound, P. aeruginosa VIM-2 [6]: >8 µg/mL

SMILES: O=C(N[C@@H](Cc1cccc(C(=O)O)c1O)B(O)O)c1ccc(C[n+]2ccccc2)cc1 [Example 14, (1R)-[4-(pyridinium)-methyl]-benzoylamino-(3-carboxy-2-hydroxy)benzyl-methyl boronic acid chloride]
- IC50 (SHV-5 β-lactamase): > 1000 nM
- IC50 (CTX-M15 β-lactamase): 1 nM
- IC50 (p99 AmpC β-lactamase): 29 nM
- IC50 (KPC-2 β-lactamase): 21 nM
- IC50 [1]: 360 nM
- IC50 (OXA-23 β-lactamase): > 1000 nM
- MIC of example compound, E. coli SHV-5 [2]: >8 µg/mL
- MIC of example compound, K. pneumoniae CTX-M-15 [3]: >8 µg/mL
- MIC of example compound, E. cloacae P99+ [4]: 0.5 µg/mL
- MIC of example compound, K. pneumoniae KPC-2 [5]: 0.01 µg/mL
- MIC of example compound, P. aeruginosa VIM-2 [6]: >8 µg/mL
